In paper PMC6018403 (Frontiers in Pharmacology, 2018):
Like-named read-outs stand apart in the source and are kept apart here.

Assay: Multi-component pharmacokinetic study of GQD, GQD-GC and single herb extracts in rats (plasma, LC/MS/MS)
Type: in vivo, Sprague-Dawley rats
Conditions: for AUC(0-t) / Cmax / half-life / Tmax: male, Sprague-Dawley, rat; for decrease of Cmax in the GQD group compared with the Huang-Qin group: rats, oral, GQD vs Huang-Qin
Protocol: Male Sprague-Dawley rats (220–250 g) were used for PK study, and the details were described in Supplemental Data. All procedures were in accordance with the National Institutes of Health Guide for the Care and Use of Laboratory Animals.
For PK study of GQD and its component herbs, rats were randomly divided into six groups (n = 10 for each group) before oral administration.
All blood samples were immediately centrifuged at 6,000 rpm (4°C) for 20 min to obtain plasma. The plasma samples were stored at −80°C.
A Finnigan TSQ Quantum triple quadrupole mass spectrometer was connected to a Surveyor HPLC via ESI interface (ThermoFisher). High purity nitrogen was used as the sheath and auxiliary gas; Ultra-high purity argon was used as the collision gas (1.5 mTorr). Q1 and Q3 quadrupoles were set at unit resolution. […] The column temperature was 40°C. The mobile phase consisted of acetonitrile containing 2% (v/v) methanol (A) and water containing 0.1% (v/v) formic acid (B). […] An aliquot of 5 μL was injected for analysis. UV spectra were obtained by scanning from 200 to 400 nm. The mass spectrometer was operated in the (+)-ESI mode. The optimized parameters were as follows: sheath gas (N2), 50 arb; auxiliary gas (N2), 5 arb; spray voltage, 4.0 kV; capillary temperature, 330°C; collision energy, see Table S1. Analytes were detected in the selected reaction monitoring (SRM) mode. Data were processed by Xcalibur 2.0.7 software (ThermoFisher).
LC/MS/MS calibration and quantitation data were processed with Xcalibur 2.0.7 software (ThermoFisher). The maximal plasma concentrations (Cmax) and their time of occurrence (Tmax) were obtained directly from the measured data. Other pharmacokinetic parameters were calculated by non-compartment or compartment models using WinNonlin® software (v6.1, Pharsight). Unless otherwise stated, results were expressed as the mean ± SD. Statistical significance in differences of the means was determined by Student's t–test, with a significance level of P < 0.05.
Herbal materials and extracts.
The four component herbs, Puerariae Lobatae Radix (Ge-Gen, GG), Scutellariae Radix (Huang-Qin, HQ), Coptidis Rhizoma (Huang-Lian, HL), and Glycyrrhizae Radix et Rhizoma Praeparata cum Melle (Gan-Cao, GC) were purchased from Tianheng Pharmacy. GQD was prepared by decocting the four component herbs […]
pre-extraction of Ge-Gen using 200 mL of water for 0.5 h. The decoctions were combined, filtered, and concentrated in vacuum at 50 °C. GQD-GC was prepared using the same procedure, except that Gan-Cao was removed from the formula. Final concentration of the GQD-GC extract was equivalent to 1.0 g of the crude drugs per mL. For single herb extracts, the herbs were decocted in 8-fold volume of water for […]
Final concentrations of the extracts were 1.0 g/mL for Ge-Gen, and 0.5 g/mL for Huang-Qin, Huang-Lian and […]
For pharmacokinetic study, Male Sprague-Dawley rats (220-250 g) were obtained from the Laboratory Animal Center of Peking University Health Science Center. The […]
The rats had free access to tap water and soy-free custom diet (Ke’ao Xieli Co.). All procedures were in accordance with the National Institutes of Health Guide for the Care and Use of Laboratory Animals […]
Experimental details for the PK study
1. Preparation of internal standard solution, calibration standard solutions, and quality control solutions […]
internal standard solution. Reference standard compounds were dissolved in the internal standard solution to prepare individual stock solutions (1.0 mg/mL). These […]
each compound. The standard solution was then serially diluted to obtain calibration […]
Quality control stock solutions were prepared at three concentration levels as high QC (HQC), middle QC (MQC), and low QC (LQC), based on linear ranges of the analytes.
2.1. Sample preparation for pharmacokinetic study
The calibration standard and quality control solutions for pharmacokinetic study were […]

[1] = plasma, po, 3.54 g/kg, HQ (Huang-Qin) group: rats, oral extract 3.54 g/kg, plasma, read-out: AUClast
[2] = plasma, po, 16.5 g/kg, GQD-GC group (GQD without Gan-Cao): rats, oral 16.5 g/kg, plasma, read-out: AUClast
[3] = plasma, po, 18.9 g/kg, GQD group: rats, oral GQD extract 18.9 g/kg, plasma, read-out: AUClast
[4] = GQD group: rats, oral GQD extract 18.9 g/kg, plasma, read-out: Cmax
[5] = GQD group: rats, oral GQD extract 18.9 g/kg, plasma, read-out: T1/2 (converted)
[6] = GQD group: rats, oral GQD extract 18.9 g/kg, plasma, read-out: Tmax
[7] = GQD-GC group (GQD without Gan-Cao): rats, oral 16.5 g/kg, plasma, read-out: Cmax
[8] = GQD-GC group (GQD without Gan-Cao): rats, oral 16.5 g/kg, plasma, read-out: T1/2 (converted)
[9] = GQD-GC group (GQD without Gan-Cao): rats, oral 16.5 g/kg, plasma, read-out: Tmax
[10] = HQ (Huang-Qin) group: rats, oral extract 3.54 g/kg, plasma, read-out: Cmax
[11] = HQ (Huang-Qin) group: rats, oral extract 3.54 g/kg, plasma, read-out: T1/2 (converted)
[12] = HQ (Huang-Qin) group: rats, oral extract 3.54 g/kg, plasma, read-out: Tmax
[13] = plasma, po, 3.54 g/kg, Huang-Qin group: rats, oral 3.54 g/kg, plasma, read-out: AUClast

Row | Compound | AUC(0-t) [1] | AUC(0-t) [2] | AUC(0-t) [3] | Cmax [4] | half-life [5] | Tmax [6] | Cmax [7] | half-life [8] | Tmax [9] | Cmax [10] | half-life [11] | Tmax [12] | AUC(0-t) [13] | decrease of Cmax in the GQD group compared with the Huang-Qin group | further results
1 | COc1c(O)cc(OC2OC(CO)C(O)C(O)C2O)c2c(=O)cc(-c3ccccc3)oc12 (stereo not drawn) [Compound 13, wogonin 5-O-glucoside] | 42.8 ± 6.01 ng·h/mL | 28.2 ± 3.04 ng·h/mL | 53 ± 7.56 ng·h/mL | 1.83 ± 0.14 ng/mL | 16.1 ± 4.22 h | 2 ± 1.29 h | 5.17 ± 0.26 ng/mL | 13.1 ± 3.96 h | 2 ± 4.23 h | 1.92 ± 0.13 ng/mL | 16.1 ± 5.45 h | 0.1 ± 0.07 h | – | – | –
2 | O=C(O)[C@H]1O[C@@H](Oc2cc(O)c3c(=O)cc(-c4ccccc4)oc3c2O)[C@H](O)[C@@H](O)[C@@H]1O [Compound 14, norwogonin 7-O-glucuronide] | 11000 ± 2530 ng·h/mL | 6030 ± 272 ng·h/mL | 5270 ± 987 ng·h/mL | 379 ± 98.5 ng/mL | 4.88 ± 2.87 h | 7.05 ± 1.23 h | 359 ± 34.3 ng/mL | 4.28 ± 1.63 h | 6.17 ± 8.34 h | 547 ± 73.8 ng/mL | 5.1 ± 0.33 h | 7.36 ± 0.08 h | 11000 ± 2530 ng·h/mL | at least 30% | –
3 | O=C(O)[C@H]1O[C@@H](Oc2cc3oc(-c4ccccc4)cc(=O)c3c(O)c2O)[C@H](O)[C@@H](O)[C@@H]1O [Compound 17, baicalin] | 52600 ± 35500 ng·h/mL | 39600 ± 2610 ng·h/mL | 22300 ± 11200 ng·h/mL | 1180 ± 870 ng/mL | 4.8 ± 3.27 h | 7.29 ± 1.38 h | 1890 ± 988 ng/mL | 5.34 ± 2.55 h | 7.71 ± 1.34 h | 4040 ± 584 ng/mL | 3.32 ± 1.08 h | 7.79 ± 0.99 h | 52600 ± 35500 ng·h/mL | at least 30% | –
4 | O=c1cc(-c2ccccc2)oc2cc(O)cc(O)c12 [Compound 18, chrysin] | – | – | – | – | – | – | – | – | – | – | – | – | – | – | Cmax (in vivo, po, 3.54 g/kg): 4.1 ± 0.44 ng/mL; Tmax (in vivo, po, 3.54 g/kg): 0.58 ± 0.23 h; half-life (in vivo, po, 3.54 g/kg): 4.87 ± 1.43 h; AUC(0-t) (in vivo, po, 3.54 g/kg, AUClast): 41.3 ± 1.34 ng·h/mL
5 | COc1ccc2c(c1O)-c1c(O)c(OC)cc3c1[C@H](C2)[N+](C)(C)CC3 [Compound 19, magnoflorine] | – | 47.3 ± 9.31 ng·h/mL | 198 ± 74.9 ng·h/mL | 19.7 ± 5.67 ng/mL | 8.35 ± 1.26 h | 4.13 ± 1.21 h | 5.21 ± 1.2 ng/mL | 4.54 ± 1.43 h | 0.28 ± 0.13 h | – | – | – | – | – | AUC(0-t) (plasma, po, 3.54 g/kg, HL (Huang-Lian) group: rats, oral extract 3.54 g/kg, plasma, read-out: AUClast): 556 ± 224 ng·h/mL; AUC(0-t) (plasma, po, 18.9 g/kg, GQD group: rats, oral GQD 18.9 g/kg (1.5-fold of clinical dosage), plasma, read-out: AUClast): > 100 ng·h/mL; Cmax (HL (Huang-Lian) group: rats, oral extract 3.54 g/kg, plasma, read-out: Cmax): 76.4 ± 23.4 ng/mL; half-life (HL (Huang-Lian) group: rats, oral extract 3.54 g/kg, plasma, read-out: T1/2 (converted)): 10.2 ± 4.34 h; Tmax (HL (Huang-Lian) group: rats, oral extract 3.54 g/kg, plasma, read-out: Tmax): 4.21 ± 3.47 h
